The values that follow come from patent US8486606B2, “Acrylate derivative, haloester derivative, polymer compound and photoresist composition” (Kuraray Co., Ltd., priority 2008, dated 2013).

This series can be described thus: Evaluation of solubility at 25° C. in organic solvent. It counts as physicochemical. The procedure: A solubility of 2-methacryloyloxyacetoxy-4,5-oxathiatricyclo[4.2.1.0^3,7]nonane-5,5-dioxide obtained in Example 2 in tetrahydrofuran was measured according to the following operation.
1 g of a sample to be used for the evaluation of solubility was prepared. 1 g of an organic solvent described in Table 1 and the foregoing sample were mixed at 25° C., and the mixture was stirred at 25° C. for 10 minutes as it was. An insoluble matter was filtered out from the obtained mixed solution, and the organic solvent was distilled off from the filtrate. Subsequently, the residue was dried under reduced pressure for 5 hours, thereby obtaining the sample in the saturated solution. A mass of the subject sample was measured, and its solubility was calculated according to the following expression. Solubility(% by mass)=100×(Mass of the sample in the saturated solution)/(Mass of the saturated solution)
The experiment and evaluation of solubility were carried out in the same manner as in Example 7, except that in Example 7, the sample and the organic solvent were changed to those shown in Table 1 or Table 2.

Where [1] appears, read: organic solvent: Methyl ethyl ketone.
The mark [2] stands for this setting: organic solvent: Tetrahydrofuran.

In the case of `C=C(C)C(=O)OCC(=O)OC1C2CC3C1OS(=O)(=O)C3C2` (stereo not drawn) [Example 2, 2-methacryloyloxyacetoxy-4,5-oxathiatricyclo[4.2.1.0^3,7]nonane-5,5-dioxide], the Solubility under setting [1] stood at 45.5 % by mass and the Solubility under setting [2] came out at 48.1 % by mass.
In the case of `C=C(C)C(=O)OCC(=O)OC1C2CC3C(O2)C1OS3(=O)=O` (stereo not drawn) [Example 4, 5-methacryloyloxyacetoxy-3,7-dioxa-2-thiatricyclo[4.2.1.0^4,8]nonane-2,2-dioxide], the Solubility was found to be 30.8 % by mass under setting [1] and 31.9 % by mass under setting [2].
Consider `C=C(C)C(=O)OCC(=O)OC1C2CC3C(=O)OC1C3O2` (stereo not drawn) [reference compound], for which the Solubility runs as follows: under setting [1], 4.2 % by mass; under setting [2], 7.8 % by mass.
